Experimental data reported in patent US6387427B1, “Method of preservation of a food product” (Nestec S.A., priority 2000, dated 2002).

Columns and labels:
Type in all cases: cell-based
[1] = tested on: Gram-negative bacterial cocktail (3 E. Coli strains and 3 Salmonella strains); test: Challenge test in mashed potato, Gram-negative cocktail; conditions: 12° C.; for Microbial growth: mashed potato pH 5.6, 0.5%
Experimental: (§1) Five hundred grams of mashed potato were added to 500 g of distilled water and mixed thoroughly. The pH of the mixture was adjusted to pH 5.6 with 1N HCl. Three separate samples of 300 g of mashed potato were added with respectively, 0.5 % commercial sodium acetate, 0.5% of freeze dried fermentate and a control with no acetate. The three mashed potato samples (respectively with commercial acetate, fermentate and control) were heated at 70° C. for 5 min in a microwave and then dispatched aseptically in separate aliquots of 30 g each. The pH of all samples was checked before inoculation. Triplicate samples of each the three mashed potato aliquots were inoculated with 10^3-10^4 colony forming units per gram (cfu/g) of Gram-negative bacterial cocktail (3 E. Coli strains and 3 Salmonella strains), or L. monocytogenes cocktail and incubated at 12° C. for 2 weeks. Periodically, samples were withdrawn and bacterial counts were enumerated using BHI agar and incubated at 30° C. for 48 hours.
To confirm the effectiveness of the two sources of sodium acetate against Gram-negative bacteria, a cocktail of Gram-negative bacteria was used in a challenge experiment in mashed potato.

[2] = tested on: Listeria monocytogenes strains; test: Challenge test in mashed potato, L. monocytogenes cocktail; conditions: for Microbial growth: mashed potato pH 5.6, 0.5%, 12° C.
Experimental: as §1
To confirm the effectiveness of the two sources of sodium acetate against Listeria monocytogenes strains, another challenge experiment in mashed potato was performed.

[3] = tested on: Cocktail (L. monocytogenes, Bacillus cereus, Escherichia coli, S. typhimurium); test: Challenge test in BHI broth, bacterial cocktail; conditions: for Bacterial growth (optical density 550 nm after 12 days): pH 5.6, 12° C.
Experimental: (§2) Commercial sodium acetate (Sigma) and the freeze-dried fermentate of the invention (pH 5.0) were tested in Brain Heart Infusion broth (BHI), using single and cocktail tests. BHI was added with:
(§3) (a) commercial sodium acetate at final concentrations of 0.25 and 0.5%;
(§4) (b) freeze dried fermentate (pH 5.0) at final concentrations of sodium acetate of 0.25 to 0.5%; and,
(§5) (c) a control sample consisted of BHI broth without sodium acetate.
(§6) For first samples, the pH of BHI broth with or without sodium acetate was adjusted to 5.6 with HCl (10%) and the samples filter-sterilized ([…], Millipore). For comparative samples, the pH was controlled at 7.0 and the sample filtered-sterilized.
(§7) The freeze-dried product was evaluated for its inhibitory actions against Gram-negative Gram-positive bacteria. Twenty-mL samples were inoculated with 10^4-10^5 cfu/mL of L. monocytogenes, B. cereus, E. coli, or S. typhimurium alone and combined. The samples were incubated at two conditions: at 30° C. for 24 h, and at 12° C. for 2 weeks.
(§8) The control samples consisted of samples with and without commercial sodium acetate.
An additional challenge test was carried out on the bacterial cocktail strains of Listeria monocytogenes, Escheriachia coli, Bacillus cereus, and Salmonella typhimurium.

[4] = tested on: challenge bacteria (L. monocytogenes, B. cereus, E. coli, S. typhimurium); test: Challenge test in BHI broth, challenge bacteria overall; conditions: neutral pH (6.5 to 7.0) and 30° C.
Experimental: as §2, §3, §4, §5, §6, §7, §8

Escherichia coli = test: Challenge test in BHI broth, single strain; conditions: for Bacterial growth (optical density 550 nm after 12 days): pH 5.6, 12° C.
Experimental: as §2, §3, §4, §5, §6, §7, §8

Salmonella typhimurium = test: Challenge test in BHI broth, single strain; conditions: for Bacterial growth (optical density 550 nm after 12 days): pH 5.6, 12° C.
Experimental: as §2, §3, §4, §5, §6, §7, §8

Listeria monocytogenes = test: Challenge test in BHI broth, single strain; conditions: for Bacterial growth (optical density 550 nm after 12 days): pH 5.6, 12° C.
Experimental: as §2, §3, §4, §5, §6, §7, §8

Bacillus cereus = test: Challenge test in BHI broth, single strain; conditions: for Bacterial growth (optical density 550 nm after 12 days): pH 5.6, 12° C.
Experimental: as §2, §3, §4, §5, §6, §7, §8

[5] = 0.25% sodium acetate, pH 5.6, 30° C.
[6] = 0.25% sodium acetate, pH 7.0, 30° C.
[7] = 0.5% sodium acetate, pH 5.6, 30° C.
[8] = 0.5% sodium acetate, pH 7.0, 30° C.

CC(=O)[O-].[Na+] [C, sodium acetate]
Microbial growth ([1]; day 0): 4.6 Log10 cfu/g | Microbial growth ([1]; day 2): 4.6 Log10 cfu/g | Microbial growth ([1]; day 5): 4.5 Log10 cfu/g | Microbial growth ([1]; day 7): 4.5 Log10 cfu/g | Microbial growth ([1]; day 9): 4.1 Log10 cfu/g | Inhibitory effectiveness on growth of Gram-negative cocktail (in words) ([1]; mashed potato): inhibitory effectiveness | Microbial growth ([2]; day 0): 3.1 Log10 cfu/g | Microbial growth ([2]; day 2): 4.4 Log10 cfu/g | Microbial growth ([2]; day 5): 4.3 Log10 cfu/g | Microbial growth ([2]; day 7): 4.9 Log10 cfu/g | Microbial growth ([2]; day 14): 7.5 Log10 cfu/g | Delay of growth of Listeria monocytogenes (in words) ([2]; mashed potato, 14 days of incubation at 12° C.): unable to delay the growth of this organism for more than a week | Bacterial growth (optical density 550 nm after 12 days) ([3]; 0.25% sodium acetate): 0.287 | Bacterial growth (optical density 550 nm after 12 days) ([3]; 0.5% sodium acetate): 0.266 | Inhibition of the bacterial cocktail (in words) ([3]; pH 5.6 and at 2° C. (so in the source), both concentrations): failed to inhibit | Inhibition of the challenge bacteria (in words) [4]: neither commercial sodium acetate nor the fermentate inhibit | Bacterial growth (optical density 550 nm after 12 days) (Escherichia coli; 0.25% sodium acetate): 0.017 | Bacterial growth (optical density 550 nm after 24 hrs) (Escherichia coli; [5]): 0.231 | Bacterial growth (optical density 550 nm after 24 hrs) (Escherichia coli; [6]): 0.589 | Bacterial growth (optical density 550 nm after 12 days) (Escherichia coli; 0.5% sodium acetate): 0.013 | Bacterial growth (optical density 550 nm after 24 hrs) (Escherichia coli; [7]): 0.099 | Bacterial growth (optical density 550 nm after 24 hrs) (Escherichia coli; [8]): 0.587 | Inhibitory effect on growth (in words) (Escherichia coli; pH 5.6 and below): exhibited inhibitory effects | Bacterial growth (optical density 550 nm after 12 days) (Salmonella typhimurium; 0.25% sodium acetate): 0.010 | Bacterial growth (optical density 550 nm after 24 hrs) (Salmonella typhimurium; [5]): 0.089 | Bacterial growth (optical density 550 nm after 24 hrs) (Salmonella typhimurium; [6]): 0.645 | Bacterial growth (optical density 550 nm after 12 days) (Salmonella typhimurium; 0.5% sodium acetate): 0.013 | Bacterial growth (optical density 550 nm after 24 hrs) (Salmonella typhimurium; [7]): 0.020 | Bacterial growth (optical density 550 nm after 24 hrs) (Salmonella typhimurium; [8]): 0.600 | Inhibitory effect on growth (in words) (Salmonella typhimurium; pH 5.6 and below): exhibited inhibitory effects | Bacterial growth (optical density 550 nm after 12 days) (Listeria monocytogenes; 0.25% sodium acetate): 0.212 | Bacterial growth (optical density 550 nm after 24 hrs) (Listeria monocytogenes; [5]): 0.216 | Bacterial growth (optical density 550 nm after 24 hrs) (Listeria monocytogenes; [6]): 0.429 | Bacterial growth (optical density 550 nm after 12 days) (Listeria monocytogenes; 0.5% sodium acetate): 0.220 | Bacterial growth (optical density 550 nm after 24 hrs) (Listeria monocytogenes; [7]): 0.063 | Bacterial growth (optical density 550 nm after 24 hrs) (Listeria monocytogenes; [8]): 0.399 | Bacterial growth (optical density 550 nm after 12 days) (Bacillus cereus; 0.25% sodium acetate): 0.017 | Bacterial growth (optical density 550 nm after 24 hrs) (Bacillus cereus; [5]): 0.068 | Bacterial growth (optical density 550 nm after 24 hrs) (Bacillus cereus; [6]): 0.325 | Bacterial growth (optical density 550 nm after 12 days) (Bacillus cereus; 0.5% sodium acetate): 0.017 | Bacterial growth (optical density 550 nm after 24 hrs) (Bacillus cereus; [7]): 0.042 | Bacterial growth (optical density 550 nm after 24 hrs) (Bacillus cereus; [8]): 0.315 | Inhibitory effect on growth (in words) (Bacillus cereus; pH 5.6 and below): exhibited inhibitory effects
